Source: ChEMBL document CHEMBL2396531, “Hybrid molecule from O2-(2,4-dinitrophenyl)diazeniumdiolate and oleanolic acid: a glutathione S-transferase π-activated nitric oxide prodrug with selective anti-human hepatocellular carcinoma activity and improved stability” (J Med Chem, 2013)

Tests used:
[1] = Metabolic stability in Sprague-Dawley rat plasma at 40 uM after 9 hrs by HPLC analysis; format: ADME, cell-free; details: read-out: Stability
[2] = test system: HepG2; assay: Cytotoxicity against human HepG2 cells assessed as cell viability at 3 uM after 24 hrs by MTT assay; format: functional; details: HepG2, 24 h, read-out: Activity
[3] = test system: Bel-7402; assay: Cytotoxicity against human Bel7402 cells at 30 uM after 24 hrs by MTT assay; format: functional
[4] = Cytotoxicity against human LO2 cells at 1 to 4 uM after 24 hrs by MTT assay; format: cell-based; details: l02, 24 h
[5] = test system: HepG2; assay: Cytotoxicity against human HepG2 cells after 24 hrs by MTT assay; format: functional, cell-based; details: HepG2, 24 h
[6] = (§1) Activity at GSTalpha (unknown origin) by Michaelis-Menten equation; format: ADME; details: human
[7] = test system: GSTalpha; assay: as §1; format: ADME; details: human, GSTalpha enzyme
[8] = test system: Bel-7402; assay: Cytotoxicity against human Bel7402 cells after 72 hrs by MTT assay; format: functional, cell-based; details: Bel-7402, 72 h
[9] = test system: Mus musculus; assay: Acute toxicity in mouse assessed as mortality at 383.1 umol/kg, ip after 14 days; format: organism-based; details: in vivo, 336 h
[10] = test system: H22; assay: Antitumor activity against mouse H22 cells […] in mouse assessed as inhibition of tumor growth at 19.2 umol/kg, ip after 14 days relative to vehicle-treated control; format: functional; details: 336 h
[11] = Chemical stability in PBS buffer at pH 7.4 in presence of 1 mM GSH at room temperature for 30 mins by spectrophotometry; format: physicochemical; details: pH 7.4, 0.5 h
[12] = biological target: Glutathione S-transferase P (Homo sapiens, UniProt P09211); assay: Activity at GSTpi (unknown origin) assessed as compound decomposition in presence of 1mM GSH at 40 uM by microplate reader analysis; format: ADME
Sequence of Glutathione S-transferase P (P09211 whole entry): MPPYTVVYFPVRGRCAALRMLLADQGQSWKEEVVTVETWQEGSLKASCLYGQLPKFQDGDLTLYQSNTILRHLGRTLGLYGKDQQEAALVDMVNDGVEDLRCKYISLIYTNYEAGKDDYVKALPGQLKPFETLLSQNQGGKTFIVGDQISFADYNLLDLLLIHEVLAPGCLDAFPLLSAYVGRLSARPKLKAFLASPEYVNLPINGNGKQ

[13] = test system: HepG2; assay: Cytotoxicity against human HepG2 cells assessed as cell viability at 3 uM after 24 hrs by MTT assay in presence of EA; format: functional; details: HepG2, 24 h, read-out: Activity
[14] = test system: Mus musculus; assay: Acute toxicity in mouse assessed as abnormality in drinking at 196.1 umol/kg, ip after 14 days; format: organism-based; details: in vivo, 336 h
[15] = test system: HepG2; assay: Cytotoxicity against human HepG2 cells after 72 hrs by MTT assay; format: functional, cell-based; details: HepG2, 72 h
[16] = test system: HepG2; assay: Cytotoxicity against human HepG2 cells at 30 uM after 24 hrs by MTT assay; format: functional
[17] = Acute toxicity in ip dosed mouse after 14 days; format: organism-based; details: in vivo
[18] = test system: HepG2; assay: Cytotoxicity against human HepG2 cells after 48 hrs by MTT assay; format: functional, cell-based; details: HepG2, 48 h
[19] = test system: H22; assay: Antitumor activity against mouse H22 cells […] in mouse assessed as inhibition of tumor growth at 9.6 umol/kg, ip after 14 days relative to vehicle-treated control; format: functional; details: 336 h
[20] = test system: Mus musculus; assay: Acute toxicity in mouse assessed as activity at 196.1 umol/kg, ip after 14 days; format: organism-based; details: in vivo, 336 h
[21] = test system: HepG2; assay: Induction of intracellular NO release in human HepG2 cells at 30 uM after 6 hrs by Griess assay relative to JS-K; format: functional
[22] = test system: Mus musculus; assay: Acute toxicity in mouse assessed as abnormality in eating at 196.1 umol/kg, ip after 14 days; format: organism-based; details: in vivo, 336 h
[23] = Chemical stability in PBS buffer at pH 7.4 in presence of 5 mM GSH at 37 degC after 100 mins by HPLC analysis; format: physicochemical; details: PBS buffer with 5 mM GSH, read-out: Stability
[24] = Activity at GSTalpha (unknown origin) assessed per mg protein by Michaelis-Menten equation; format: ADME; details: human
[25] = test system: SMMC-7721; assay: Cytotoxicity against human SMMC7721 cells at 30 uM after 24 hrs by MTT assay; format: functional
[26] = test system: HepG2; assay: Induction of intracellular NO release in human HepG2 cells at 30 uM after 6 hrs by Griess assay relative to PABA/NO; format: functional
[27] = test system: H22; assay: Antitumor activity against mouse H22 cells […] in mouse assessed as inhibition of tumor growth at 38.3 umol/kg, ip after 14 days relative to vehicle-treated control; format: functional; details: 336 h
[28] = test system: Mus musculus; assay: Acute toxicity in mouse assessed as body weight at 196.1 umol/kg, ip after 14 days; format: organism-based; details: in vivo, 336 h
[29] = test system: SMMC-7721; assay: Cytotoxicity against human SMMC7721 cells after 72 hrs by MTT assay; format: functional, cell-based; details: SMMC-7721, 72 h
[30] = test system: Plasma; assay: Metabolic stability in Sprague-Dawley rat plasma at 40 uM after 6 hrs by HPLC analysis; format: ADME, cell-free
[31] = test system: Mus musculus; assay: Acute toxicity in mouse assessed as mortality at 196.1 umol/kg, ip after 14 days; format: organism-based; details: in vivo, 336 h
[32] = Activity at GSTalpha (unknown origin) assessed as compound decomposition in presence of 1mM GSH at 40 uM by microplate reader analysis; format: ADME; details: human
[33] = Chemical stability in PBS buffer at pH 7.4 in presence of 4 mM GSH at 37 degC after 15 to 20 mins by HPLC analysis; format: physicochemical
[34] = test system: H22; assay: Antitumor activity against mouse H22 cells […] in mouse assessed as inhibition of tumor growth at 153.8 umol/kg, ip after 14 days relative to vehicle-treated control; format: functional; details: 336 h

Work on `CN(CCO)/[N+]([O-])=N\Oc1cc(N2CCN(CC(=O)O[C@H]3CC[C@]4(C)[C@H]5CC=C6[C@@H]7CC(C)(C)CC[C@]7(C(=O)O[C@@H]7O[C@H](CO)[C@H](O)[C@H](O)[C@H]7O)CC[C@@]6(C)[C@]5(C)CC[C@H]4C3(C)C)CC2)c([N+](=O)[O-])cc1[N+](=O)[O-]` yielded a remaining at 9 h, 40 µM [1] of 80%, a viability at 3 µM [2] of 17% and a Cytotoxicity [3] of 80%. For the same molecule, the Activity [4] was “Toxic”, the IC50 [5] was 3.38 µM and the Kcat [6] was 0.72 s⁻¹. The Km [7] was 264 µM, the IC50 [8] was 1.45 µM and the Activity [9] was “Toxic”. The inhibition in vivo at 19.2 µmol/kg [10] was 36.1%, the Stability [11] was “Stable” and the Activity [12] was “Active”. For the same molecule, the viability at 3 µM [13] was 41.7%, the Activity [14] was “Non-toxic” and the IC50 [15] was 1.41 µM. For the same molecule, the Cytotoxicity [16] was 80%, the LD50 at 336 h [17] was 250 µmol/kg and the IC50 [18] was 2.11 µM. The inhibition in vivo at 9.6 µmol/kg [19] was 13.4%, the Activity [20] was “Non-toxic” and the Ratio [21] was 2. For the same molecule, the Activity [22] was “Non-toxic”, the remaining at 100 min [23] was 78% and the Vmax [24] was 1.69 µmol/min. It also gave a Cytotoxicity [25] of 80%, a Ratio [26] of 2 and an inhibition in vivo at 38.3 µmol/kg [27] of 68.4%. For the same molecule, the Activity [28] was “Non-toxic”, the IC50 [29] was 2.3 µM and the Stability [30] was “Stable”. The Activity [31] was “Non-toxic” and the Activity [32] was “Active”.

Work on `CN(CCO)/[N+]([O-])=N\Oc1cc(NCCC(=O)O[C@H]2CC[C@]3(C)[C@H]4CC=C5[C@@H]6CC(C)(C)CC[C@]6(C(=O)O[C@@H]6O[C@H](CO)[C@H](O)[C@H](O)[C@H]6O)CC[C@@]5(C)[C@]4(C)CC[C@H]3C2(C)C)c([N+](=O)[O-])cc1[N+](=O)[O-]` yielded a Cytotoxicity [3] of over 70%, an IC50 [5] of 5.45 µM and an IC50 [8] of 2.36 µM. It also gave an IC50 [15] of 2.05 µM, a Cytotoxicity [16] of over 70% and an IC50 [18] of 3.56 µM. For the same molecule, the Cytotoxicity [25] was over 70% and the IC50 [29] was 3.97 µM.

Work on `CN(CCO)/[N+]([O-])=N/Oc1cc(NCC(=O)O[C@H]2CC[C@]3(C)[C@H]4CC=C5[C@@H]6CC(C)(C)CC[C@]6(C(=O)O[C@@H]6O[C@H](CO)[C@H](O)[C@H](O)[C@H]6O)CC[C@@]5(C)[C@]4(C)CC[C@H]3C2(C)C)c([N+](=O)[O-])cc1[N+](=O)[O-]` yielded an IC50 [5] of 9.59 µM, an IC50 [8] of 5.68 µM and an IC50 [15] of 3.65 µM. The IC50 [18] was 6.65 µM and the IC50 [29] was 7.44 µM.

`C[C@H](Nc1cc(O/N=[N+](\[O-])N(C)CCO)c([N+](=O)[O-])cc1[N+](=O)[O-])C(=O)O[C@H]1CC[C@]2(C)[C@H]3CC=C4[C@@H]5CC(C)(C)CC[C@]5(C(=O)O[C@@H]5O[C@H](CO)[C@H](O)[C@H](O)[C@H]5O)CC[C@@]4(C)[C@]3(C)CC[C@H]2C1(C)C` showed an IC50 [5] of 9.12 µM, an IC50 [8] of 7.38 µM and an IC50 [15] of 6.91 µM. For the same molecule, the IC50 [18] was 7.89 µM and the IC50 [29] was 8.84 µM.

`CCOC(=O)N1CCN(/[N+]([O-])=N/Oc2ccc([N+](=O)[O-])cc2[N+](=O)[O-])CC1` showed a Cytotoxicity [3] of 67%, an IC50 [5] of 12.2 µM and an IC50 [8] of 5.17 µM. For the same molecule, the Stability [11] was “Stable”, the Stability [33] was “Unstable” and the IC50 [15] was 5.19 µM. For the same molecule, the Cytotoxicity [16] was 67%, the IC50 [18] was 7.12 µM and the Cytotoxicity [25] was 67%. For the same molecule, the IC50 [29] was 7.31 µM.

For `O=c1[nH]cc(F)c(=O)[nH]1` [FLUOROURACIL], the inhibition in vivo at 153.8 µmol/kg [34] was 57.5%.
